# Measurements as given in paper PMC5715060, “Key site residues of pheromone-binding protein 1 involved in interacting with sex pheromone components of Helicoverpa armigera” (Scientific Reports, 2017).
# What was measured:
# HarmPBP1 (wild-type) = HarmPBP1 (wild-type) (Helicoverpa armigera, UniProt F5ANH9); experiment: Fluorescence binding assay (1-NPN probe), wild-type HarmPBP1; conditions: for Ki / IC50: wild-type HarmPBP1, pH 7.4; for Ki: calculated from IC50, Ki = [IC50]/(1 + [1-NPN]/K1-NPN), read-out: Ki, dissociation constant; for IC50: mean ± S.E.M, three replicates, read-out: IC50, ligand concentration displacing 50% of the fluorescence intensity of the protein/1-NPN complex
# HarmPBP1 (wild-type), sequence (F5ANH9 entry or part of it): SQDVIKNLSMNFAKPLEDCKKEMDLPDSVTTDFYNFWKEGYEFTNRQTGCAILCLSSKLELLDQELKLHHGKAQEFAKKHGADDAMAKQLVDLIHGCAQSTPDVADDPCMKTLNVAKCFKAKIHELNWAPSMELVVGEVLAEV
# Procedure: (§1) Fluorescence binding assays were performed in a reaction system at pH7.4. Probed by 1-NPN, the maximum emission wavelengths of F12A, F36A, W37A, F119A and Q64A were in the range of 390–410 nm, which are similar to that of HarmPBP1 (400 nm).
# (§2) Fluorescence binding assays were conducted on the F-380 fluorescence spectrophotometer (Gangdong Sci. & Tech, Tianjin, China) in a 1-cm light path quartz cuvette to further investigate the binding abilities of the principal pheromone components of H. armigera, Z11-16:Ald and Z9-16:Ald, to mutants. The fluorescent probe N-phenyl- 1-naphthylamine (1-NPN) was dissolved in methanol to yield a 1 mM stock solution. Both of the excitation and emission slit widths were 10 nm. Fluorescence of 1-NPN was excited at 337 nm and the emission spectra were recorded between 390 and 490 nm. Z11-16:Ald and Z9-16:Ald were purchased from Sigma-Aldrich (purity >98%). All chemicals used in this study were dissolved in HPLC purity grade methanol. Fluorescence measurements were performed according to Gu et al.[11]. Dissociation constants of the competitors were calculated from the corresponding IC50 (the ligand concentration displacing 50% of the NPN fluorescence intensity of the HarmPBP1/1-NPN complex) values, using the equation: Ki = [IC50]/(1 + [1-NPN]/K1-NPN), where [1-NPN] is the free concentration of 1-NPN and K1-NPN is the dissociation constant of the HarmPBP1/1-NPN complex.
# HarmPBP1 mutant F12A = HarmPBP1 mutant F12A (Helicoverpa armigera, UniProt F5ANH9, F39A); experiment: Fluorescence binding assay (1-NPN probe), mutant F12A
# HarmPBP1 mutant F12A, sequence (F5ANH9 entry or part of it F39A): as the sequence (F5ANH9 entry or part of it) above, with F12A counted along it
# Procedure: as §1
# (§3) Four mutations of HarmPBP1, F12A (mutating phenylalanine to alanine at position 12), F36A (mutating phenylalanine to alanine at position 36), W37A (mutating tryptophan to alanine at position 37) and F119A (mutating phenylalanine to alanine at position 119) were generated by using the Quick-change lightning site-directed mutagenesis kit (Stratagene, USA), and a random mutation, Q64A (mutating glutanine to alanine at position 64) was set as control. The pGEM-T Easy/HarmPBP1 construct was used as template, and the specific primers designed for mutations were also listed in Table 1. The PCR conditions were 95 °C for 30 s, followed by 18 cycles of 95 °C for 30 s, 60 °C for 1 min, 68 °C for 4 min. Valid mutants were sub-cloned into pGEM-T easy vector (Promega, USA). Same expression vector and competent cells were used as the HarmPBP1. The recombinant mutant protein prokaryotic expression and purification were conducted as mentioned above.
# as §2
# HarmPBP1 mutant F36A = HarmPBP1 mutant F36A (Helicoverpa armigera, UniProt F5ANH9, F63A); experiment: Fluorescence binding assay (1-NPN probe), mutant F36A
# HarmPBP1 mutant F36A, sequence (F5ANH9 entry or part of it F63A): as the sequence (F5ANH9 entry or part of it) above, with F36A counted along it
# Procedure: as §1, §3, §2
# HarmPBP1 mutant W37A = HarmPBP1 mutant W37A (Helicoverpa armigera, UniProt F5ANH9, W64A); experiment: Fluorescence binding assay (1-NPN probe), mutant W37A
# HarmPBP1 mutant W37A, sequence (F5ANH9 entry or part of it W64A): as the sequence (F5ANH9 entry or part of it) above, with W37A counted along it
# Procedure: as §1, §3, §2
# HarmPBP1 mutant F119A = HarmPBP1 mutant F119A (Helicoverpa armigera, UniProt F5ANH9, F146A); experiment: Fluorescence binding assay (1-NPN probe), mutant F119A
# HarmPBP1 mutant F119A, sequence (F5ANH9 entry or part of it F146A): as the sequence (F5ANH9 entry or part of it) above, with F119A counted along it
# Procedure: as §1, §3, §2
# HarmPBP1 mutant Q64A = HarmPBP1 mutant Q64A (Helicoverpa armigera, UniProt F5ANH9, Q91A); experiment: Fluorescence binding assay (1-NPN probe), control mutant Q64A
# HarmPBP1 mutant Q64A, sequence (F5ANH9 entry or part of it Q91A): as the sequence (F5ANH9 entry or part of it) above, with Q64A counted along it
# Procedure: as §1, §3, §2
SMILES,Ki (HarmPBP1 (wild-type)),IC50 (HarmPBP1 (wild-type)),IC50 (HarmPBP1 mutant F12A),Ki (HarmPBP1 mutant F12A),IC50 (HarmPBP1 mutant F36A),Ki (HarmPBP1 mutant F36A),IC50 (HarmPBP1 mutant W37A),Ki (HarmPBP1 mutant W37A),IC50 (HarmPBP1 mutant F119A),Ki (HarmPBP1 mutant F119A),IC50 (HarmPBP1 mutant Q64A),Ki (HarmPBP1 mutant Q64A),Kd (HarmPBP1 (wild-type)),Kd (HarmPBP1 mutant F12A),Kd (HarmPBP1 mutant F36A),Kd (HarmPBP1 mutant W37A),Kd (HarmPBP1 mutant F119A),Kd (HarmPBP1 mutant Q64A)
"CCCCCC/C=C\CCCCCCCC=O [Z9-16:Ald, (Z)-9-hexadecenal]",560 ± 50 nM,870 ± 80 nM,4630 ± 270 nM,3060 ± 220 nM,980 ± 150 nM,720 ± 110 nM,2220 ± 190 nM,1490 ± 130 nM,6910 ± 490 nM,4610 ± 330 nM,840 ± 60 nM,580 ± 30 nM,,,,,,
"c1ccc(Nc2cccc3ccccc23)cc1 [1-NPN, N-phenyl-1-naphthylamine]",,,,,,,,,,,,,1790 ± 140 nM,2100 ± 170 nM,4050 ± 690 nM,1870 ± 180 nM,1960 ± 160 nM,2390 ± 190 nM
"CCCC/C=C\CCCCCCCCCC=O [Z11-16:Ald, (Z)-11-hexadecenal]",670 ± 50 nM,1030 ± 80 nM,4690 ± 330 nM,3100 ± 130 nM,1040 ± 60 nM,760 ± 80 nM,2910 ± 120 nM,1950 ± 80 nM,7660 ± 560 nM,5110 ± 470 nM,1120 ± 210 nM,770 ± 130 nM,,,,,,
